Target: Androgen receptor (Mus musculus) (UniProt P19091)
Assay: Antagonist activity at androgen receptor in mouse SC-3 cells assessed as inhibition of DHT-induced cell growth at 1 uM co-treated with DHT measured after 3 days by CCK8 assay

Chain of Androgen receptor (Mus musculus) (P19091 whole entry, looked up): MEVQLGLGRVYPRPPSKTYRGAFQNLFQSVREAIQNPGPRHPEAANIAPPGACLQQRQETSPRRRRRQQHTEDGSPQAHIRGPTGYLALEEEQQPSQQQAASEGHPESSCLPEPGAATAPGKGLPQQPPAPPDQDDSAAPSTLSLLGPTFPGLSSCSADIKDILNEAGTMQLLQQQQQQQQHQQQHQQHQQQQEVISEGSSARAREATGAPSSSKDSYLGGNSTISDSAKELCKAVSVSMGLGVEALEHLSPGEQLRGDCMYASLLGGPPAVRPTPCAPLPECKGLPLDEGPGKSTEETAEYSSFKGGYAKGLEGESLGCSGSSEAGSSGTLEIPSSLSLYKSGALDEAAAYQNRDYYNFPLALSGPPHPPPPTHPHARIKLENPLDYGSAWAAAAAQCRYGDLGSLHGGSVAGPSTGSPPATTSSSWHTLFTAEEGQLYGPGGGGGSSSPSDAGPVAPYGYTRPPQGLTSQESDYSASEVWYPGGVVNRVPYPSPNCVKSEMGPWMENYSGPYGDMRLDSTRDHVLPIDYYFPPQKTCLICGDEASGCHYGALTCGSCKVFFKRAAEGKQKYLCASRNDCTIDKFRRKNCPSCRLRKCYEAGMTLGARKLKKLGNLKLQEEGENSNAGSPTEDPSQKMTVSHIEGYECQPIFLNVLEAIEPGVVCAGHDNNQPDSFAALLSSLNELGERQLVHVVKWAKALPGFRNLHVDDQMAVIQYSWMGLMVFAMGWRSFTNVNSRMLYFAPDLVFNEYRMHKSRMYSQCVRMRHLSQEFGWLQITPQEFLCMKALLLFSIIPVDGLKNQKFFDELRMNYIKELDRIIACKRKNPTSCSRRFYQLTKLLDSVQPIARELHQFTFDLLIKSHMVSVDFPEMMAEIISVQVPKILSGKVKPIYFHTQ

O=S(=O)(Nc1ccc(Oc2ccccc2)cc1)c1cccc(Cl)c1
inhibition: 8.4%

— ChEMBL document CHEMBL3865849, “Development of N-(4-Phenoxyphenyl)benzenesulfonamide Derivatives as Novel Nonsteroidal Progesterone Receptor Antagonists” (ACS Med Chem Lett, 2016)
